Patent US20120121554A1, “HMG-COA SECONDARY METABOLITES AND USES THEREOF” (EDENSPACE SYSTEMS CORPORATION, priority 2009, published 2012)

Key:
[1] = system: Experimental autoimmune encephalomyelitis (EAE) in SJL/J mice; assay: EAE mouse model, clinical assessment (day of onset); assay type: in vivo
Method: To induce EAE, five-to-seven week old SJL/J (H-2S) female mice (Charles River; Wilmington, Mass.) were immunized subcutaneously with 200 μg PLP139-151 in a 0.2 mL emulsion comprised of equal volumes of phosphate-buffered saline (PBS) and complete Freund's adjuvant (CFA) containing killed Mycobacterium Tuberculosis strain H37RA (at a final concentration of 4 mg/ml, Difco, Detroit, Mich.). PLP139-151/CFA was administered to regions above the shoulder and the flanks (4 sites total; 50 μL at each injection site). In addition, 200 ng of pertussis toxin (List Biological Laboratories, Campbell, Calif.) was injected intraperitoneally on the day of immunization and 2 days post immunization.
Mice received intravenous injections of vehicle (PBS), HMG (25 μmol/mouse), or PLP-BPI (100 nmol/mouse) on days 4, 7, and 10 (n=6 per treatment group).

[2] = system: serum cytokines and chemokines; assay: Serum cytokine and chemokine levels in EAE mice (multiplex ELISA array); assay type: in vivo, mouse
Method: FIG. 7 depicts serum levels of cytokines and chemokines in various treatment groups (PBS only control, PLP-BPI-treated, and HMG-treated) 14 days after immunization with PLP139-151/CFA to induce EAE. Data represent the mean±standard deviation. Statistical significance was determined by one way Analysis of Variance followed by post-hoc testing using the Tukey test.
Blood samples were collected from the facial vein in PBS-, HMG-, and PLP-BPI-treated mice on day 14 and day 28 (n=3 per group). Blood samples were allowed to clot overnight at 2-8° C. before centrifuging for 10 min at 2000×g. Serum was removed and stored at −80° C. until measurement of cytokines and chemokines was performed by a commercial analytical services laboratory.
The levels of key cytokines and chemokines were measured by multiplex ELISA array by a commercial analytical laboratory.

HMG-CoA reductase = target: T1, HMG-CoA reductase (Rattus norvegicus, UniProt P51639); settings: compound at 10^−3 M; cited from earlier work
T1 sequence (P51639 1-887): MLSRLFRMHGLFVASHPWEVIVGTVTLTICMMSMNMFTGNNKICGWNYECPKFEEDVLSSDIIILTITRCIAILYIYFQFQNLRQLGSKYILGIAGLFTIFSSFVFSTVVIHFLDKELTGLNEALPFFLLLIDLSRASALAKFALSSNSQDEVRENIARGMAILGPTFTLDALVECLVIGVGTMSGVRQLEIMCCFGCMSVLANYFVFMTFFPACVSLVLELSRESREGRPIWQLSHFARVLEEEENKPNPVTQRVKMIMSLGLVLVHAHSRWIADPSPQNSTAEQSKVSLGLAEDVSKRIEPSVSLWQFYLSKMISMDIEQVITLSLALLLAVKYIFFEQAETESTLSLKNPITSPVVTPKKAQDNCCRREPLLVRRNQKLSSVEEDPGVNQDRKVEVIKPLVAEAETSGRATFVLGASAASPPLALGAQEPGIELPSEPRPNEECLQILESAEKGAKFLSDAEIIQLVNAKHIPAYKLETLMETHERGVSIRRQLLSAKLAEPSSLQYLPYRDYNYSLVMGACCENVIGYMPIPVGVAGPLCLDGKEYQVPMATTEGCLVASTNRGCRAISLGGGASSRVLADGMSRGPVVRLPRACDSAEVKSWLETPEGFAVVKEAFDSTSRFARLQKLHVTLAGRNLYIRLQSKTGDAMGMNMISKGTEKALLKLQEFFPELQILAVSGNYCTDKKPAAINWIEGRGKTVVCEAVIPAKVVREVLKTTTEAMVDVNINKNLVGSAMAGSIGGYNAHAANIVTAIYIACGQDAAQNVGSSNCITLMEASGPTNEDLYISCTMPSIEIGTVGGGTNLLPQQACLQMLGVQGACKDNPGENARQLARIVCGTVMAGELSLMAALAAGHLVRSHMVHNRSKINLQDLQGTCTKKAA

CC(O)(CC(=O)O)CC(=O)O [HMG, 3-hydroxy-3-methylglutaric acid]
Disease phenotype as compared to vehicle only ([1]; EAE mice, i.v. on days 4, 7, 10): ameliorated disease phenotype
Delay of average day of onset of EAE as compared to PBS treated mice ([1]; SJL/J mice, HMG 25 μmol/mouse i.v. on days 4, 7, 10): about 2 days
Day of onset of EAE (day when EAE clinical score is one or more) ([1]; SJL/J mice, i.v. on days 4, 7, 10, HMG 25 μmol/mouse, PLP-BPI 100 nmol/mouse, PBS group day 11): 13 days
Serum RANTES level ([2]; day 14, compared to PBS group): statistically significant reductions
Serum IFN gamma concentration ([2]; day 14, compared to PBS- or PLP-BPI-treated mice): much lower
Serum IL-17 level ([2]; day 14, compared to PLP-BPI-treated animals): significantly lower
Inflammation as measured by levels of some cytokines ([2]; day 14, versus PBS only): reduced inflammation
Serum IL-1 alpha level ([2]; day 14 after immunization, compared to PBS group): statistically significant reductions

CCCCCCCCCCCCCCCC(O)(CC(=O)O)CC(=O)O [3j]
in vitro inhibition of HMGR @10^−3 M (HMG-CoA reductase): 99

CCCCCCCCCCCCCCCCCCCC(O)(CC(=O)O)CC(=O)O [3m]
in vitro inhibition of HMGR @10^−3 M (HMG-CoA reductase): 86
